Assays:
Mus musculus [1] = test: Anticonvulsant activity in pentylenetetrazole-induced Mus musculus albino (mouse) seizure model assessed as death time at 100 mg/kg, ip administered 30 min followed by pentylenetetrazole induction measured for 30 min (reference value: 416 +/- 58.2 secs); type: functional; conditions: route intraperitoneal
Mus musculus [2] = test: Anticonvulsant activity in Mus musculus albino (mouse) assessed as decrease in pentylenetetrazole-induced total seizure time at 300 mg/kg, ip administered 30 min followed by pentylenetetrazole induction measured for 30 min (reference value: 9.9 +/- 1.3 secs); type: functional; conditions: route intraperitoneal
Mus musculus [3] = test: Anticonvulsant activity in Mus musculus albino (mouse) assessed as protection against pentylenetetrazole-induced seizure at 300 mg/kg, ip administered 30 min followed by pentylenetetrazole induction measured for 30 min relative to control; type: functional; conditions: route intraperitoneal
Mus musculus [4] = test: Anticonvulsant activity in Mus musculus albino (mouse) assessed as decrease in pentylenetetrazole-induced total seizure time at 100 mg/kg, ip administered 30 min followed by pentylenetetrazole induction measured for 30 min (reference value: 9.9 +/- 1.3 secs); type: functional; conditions: route intraperitoneal
Mus musculus [5] = test: Anticonvulsant activity in Mus musculus albino (mouse) assessed as increase in onset of pentylenetetrazole-induced seizure at 300 mg/kg, ip administered 30 min followed by pentylenetetrazole induction measured for 30 min (reference value: 184 +/- 32 secs); type: functional; conditions: route intraperitoneal
Mus musculus [6] = test: Anticonvulsant activity in Mus musculus albino (mouse) assessed as protection against pentylenetetrazole-induced seizure at 100 mg/kg, ip administered 30 min followed by pentylenetetrazole induction measured for 30 min relative to control; type: functional; conditions: route intraperitoneal
Mus musculus [7] = test: Anticonvulsant activity in pentylenetetrazole-induced Mus musculus albino (mouse) seizure model assessed as survival at 300 mg/kg, ip administered 30 min followed by pentylenetetrazole induction measured for 30 min relative to control; type: functional; conditions: 0.5 h, route intraperitoneal
Mus musculus [8] = test: Anticonvulsant activity in Mus musculus albino (mouse) assessed as increase in onset of pentylenetetrazole-induced seizure at 100 mg/kg, ip administered 30 min followed by pentylenetetrazole induction measured for 30 min (reference value: 184 +/- 32 secs); type: functional; conditions: route intraperitoneal
Mus musculus [9] = test: Anticonvulsant activity in pentylenetetrazole-induced Mus musculus albino (mouse) seizure model assessed as survival at 100 mg/kg, ip administered 30 min followed by pentylenetetrazole induction measured for 30 min relative to control; type: functional; conditions: 0.5 h, route intraperitoneal
Mus musculus [10] = test: Anticonvulsant activity in pentylenetetrazole-induced Mus musculus albino (mouse) seizure model assessed as death time at 300 mg/kg, ip administered 30 min followed by pentylenetetrazole induction measured for 30 min (reference value: 416 +/- 58.2 secs); type: functional; conditions: route intraperitoneal
Mus musculus [11] = test: Anticonvulsant activity in pentylenetetrazole-induced Mus musculus albino (mouse) seizure model assessed as survival at 50 mg/kg, ip administered 30 min followed by pentylenetetrazole induction measured for 30 min relative to control; type: functional; conditions: 0.5 h, route intraperitoneal
Mus musculus [12] = test: Anticonvulsant activity in Mus musculus albino (mouse) assessed as protection against pentylenetetrazole-induced seizure at 50 mg/kg, ip administered 30 min followed by pentylenetetrazole induction measured for 30 min relative to control; type: functional; conditions: route intraperitoneal
Mus musculus [13] = test: Anticonvulsant activity in Mus musculus albino (mouse) assessed as increase in onset of pentylenetetrazole-induced seizure at 50 mg/kg, ip administered 30 min followed by pentylenetetrazole induction measured for 30 min (reference value: 184 +/- 32 secs); type: functional; conditions: route intraperitoneal
Mus musculus [14] = test: Anticonvulsant activity in Mus musculus albino (mouse) assessed as decrease in pentylenetetrazole-induced total seizure time at 50 mg/kg, ip administered 30 min followed by pentylenetetrazole induction measured for 30 min (reference value: 9.9 +/- 1.3 secs); type: functional; conditions: route intraperitoneal
Mus musculus [15] = test: Neurotoxicity in Mus musculus albino (mouse) assessed as minimal motor impairment at 300 mg/kg, ip measured for 180 secs by rotorod test; type: toxicity, organism-based; design: dose 300 mg/kg, route intraperitoneal; conditions: in vivo, 0.05 h
Mus musculus [16] = test: Anticonvulsant activity in pentylenetetrazole-induced Mus musculus albino (mouse) seizure model assessed as death time at 50 mg/kg, ip administered 30 min followed by pentylenetetrazole induction measured for 30 min (reference value: 416 +/- 58.2 secs); type: functional; conditions: route intraperitoneal
Mus musculus [17] = test: Anticonvulsant activity in Mus musculus albino (mouse) assessed as increase in onset of pentylenetetrazole-induced seizure at 15 mg/kg, ip administered 30 min followed by pentylenetetrazole induction measured for 30 min (reference value: 184 +/- 32 secs); type: functional; conditions: route intraperitoneal
Mus musculus [18] = test: Anticonvulsant activity in Mus musculus albino (mouse) assessed as decrease in pentylenetetrazole-induced total seizure time at 15 mg/kg, ip administered 30 min followed by pentylenetetrazole induction measured for 30 min (reference value: 9.9 +/- 1.3 secs); type: functional; conditions: route intraperitoneal
Mus musculus [19] = test: Anticonvulsant activity in Mus musculus albino (mouse) assessed as protection against pentylenetetrazole-induced seizure at 15 mg/kg, ip administered 30 min followed by pentylenetetrazole induction measured for 30 min relative to control; type: functional; conditions: route intraperitoneal
Mus musculus [20] = test: Neurotoxicity in Mus musculus albino (mouse) assessed as minimal motor impairment at 15 mg/kg, ip measured for 180 secs by rotorod test; type: toxicity, organism-based; design: dose 15 mg/kg, route intraperitoneal; conditions: in vivo, 0.05 h
Mus musculus [21] = test: Anticonvulsant activity in pentylenetetrazole-induced Mus musculus albino (mouse) seizure model assessed as survival at 15 mg/kg, ip administered 30 min followed by pentylenetetrazole induction measured for 30 min relative to control; type: functional; conditions: 0.5 h, route intraperitoneal
Mus musculus [22] = test: Anticonvulsant activity in pentylenetetrazole-induced Mus musculus albino (mouse) seizure model assessed as death time at 15 mg/kg, ip administered 30 min followed by pentylenetetrazole induction measured for 30 min (reference value: 416 +/- 58.2 secs); type: functional; conditions: route intraperitoneal
Mus musculus [23] = test: Neurotoxicity in Mus musculus albino (mouse) assessed as minimal motor impairment at 220 mg/kg, ip measured for 180 secs by rotorod test; type: toxicity, organism-based; design: dose 220 mg/kg, route intraperitoneal; conditions: in vivo, 0.05 h
Mus musculus [24] = test: Anticonvulsant activity in Mus musculus albino (mouse) assessed as decrease in pentylenetetrazole-induced total seizure time at 220 mg/kg, ip administered 30 min followed by pentylenetetrazole induction measured for 30 min (reference value: 9.9 +/- 1.3 secs); type: functional; conditions: route intraperitoneal
Mus musculus [25] = test: Anticonvulsant activity in pentylenetetrazole-induced Mus musculus albino (mouse) seizure model assessed as survival at 220 mg/kg, ip administered 30 min followed by pentylenetetrazole induction measured for 30 min relative to control; type: functional; conditions: 0.5 h, route intraperitoneal
Mus musculus [26] = test: Anticonvulsant activity in pentylenetetrazole-induced Mus musculus albino (mouse) seizure model assessed as death time at 220 mg/kg, ip administered 30 min followed by pentylenetetrazole induction measured for 30 min (reference value: 416 +/- 58.2 secs); type: functional; conditions: route intraperitoneal
Mus musculus [27] = test: Anticonvulsant activity in Mus musculus albino (mouse) assessed as increase in onset of pentylenetetrazole-induced seizure at 220 mg/kg, ip administered 30 min followed by pentylenetetrazole induction measured for 30 min (reference value: 184 +/- 32 secs); type: functional; conditions: route intraperitoneal
Mus musculus [28] = test: Anticonvulsant activity in Mus musculus albino (mouse) assessed as protection against pentylenetetrazole-induced seizure at 220 mg/kg, ip administered 30 min followed by pentylenetetrazole induction measured for 30 min relative to control; type: functional; conditions: route intraperitoneal

SMILES	Time (Mus musculus [1]) [s]	Time (Mus musculus [2]) [s]	Activity (Mus musculus [3]) [%]	Time (Mus musculus [4]) [s]	Time (Mus musculus [5]) [s]	Activity (Mus musculus [6]) [%]	survival at 300 mg/kg (Mus musculus [7]) [%]	Time (Mus musculus [8]) [s]	survival at 100 mg/kg (Mus musculus [9]) [%]	Time (Mus musculus [10]) [s]	further results
CCOc1ccc(NCC(=O)N/N=C/c2ccccc2Cl)cc1	1189	9.3	0	8.5	590	14	12	436	43	651	–
CCOc1ccc(NCC(=O)N/N=C/c2ccccc2[N+](=O)[O-])cc1	1011	6.8	14	8.7	626	0	14	275	12	734	–
CCOc1ccc(NCC(=O)N/N=C/c2ccc([N+](=O)[O-])cc2)cc1	1137	5.2	22	5.3	885	16	44	603	50	1286	survival at 50 mg/kg (Mus musculus [11]): 67%; Activity (Mus musculus [12]): 16%; Time (Mus musculus [13]): 643 s; Time (Mus musculus [14]): 7.3 s; Activity (Mus musculus [15]): Toxic; Time (Mus musculus [16]): 1528 s
CCOc1ccc(NCC(=O)N/N=C/c2ccccc2O)cc1	659	6.4	0	11	616	0	0	275	12	896	survival at 50 mg/kg (Mus musculus [11]): 33%; Activity (Mus musculus [12]): 22%; Time (Mus musculus [13]): 903 s; Time (Mus musculus [14]): 5.2 s; Time (Mus musculus [16]): 1055 s
CCOc1ccc(NCC(=O)NN=C(C)C)cc1	623	4.2	0	4.9	425	0	0	373	0	606	–
CCOc1ccc(NCC(=O)N/N=C(/C)c2ccccc2)cc1	310	5.8	0	5.9	414	0	0	243	0	483	–
O=C(CNc1ccc(Br)cc1)N/N=C/c1ccccc1[N+](=O)[O-]	897	2.8	33	11	1073	0	33	144	38	1265	–
O=C(CNc1ccc(Br)cc1)N/N=C/c1ccc([N+](=O)[O-])cc1	1400	3.8	38	6.1	809	0	62	640	62	1456	survival at 50 mg/kg (Mus musculus [11]): 50%; Activity (Mus musculus [12]): 16%; Time (Mus musculus [13]): 596 s; Time (Mus musculus [14]): 3.7 s; Time (Mus musculus [16]): 1122 s
O=C(CNc1ccc(Br)cc1)N/N=C/c1ccccc1O	1800	6.6	38	7.7	884	25	100	724	100	1800	survival at 50 mg/kg (Mus musculus [11]): 25%; Activity (Mus musculus [12]): 25%; Time (Mus musculus [13]): 562 s; Time (Mus musculus [14]): 8.6 s; Time (Mus musculus [16]): 832 s
O=C(CNc1ccc(Br)cc1)N/N=C/c1ccccc1Cl	885	4.5	14	6.4	514	0	29	403	25	781	–
CC(C)=NNC(=O)CNc1ccc(Br)cc1	945	3.3	45	10	1098	0	64	224	25	1428	–
C/C(=N\NC(=O)CNc1ccc(Br)cc1)c1ccccc1	1577	3.1	38	11	915	14	50	498	86	1161	–
CCC1(c2ccccc2)C(=O)NC(=O)NC1=O [PHENOBARBITAL]	–	–	–	–	–	–	–	–	–	–	Time (Mus musculus [17]): 1088 s; Time (Mus musculus [18]): 2.2 s; Activity (Mus musculus [19]): 50%; Activity (Mus musculus [20]): Non-toxic; survival at 15 mg/kg (Mus musculus [21]): 100%; Time (Mus musculus [22]): 1800 s
CCCC(CCC)C(=O)[O-].[Na+] [VALPROATE SODIUM]	–	–	–	–	–	–	–	–	–	–	Activity (Mus musculus [23]): Non-toxic; Time (Mus musculus [24]): 2.3 s; survival at 220 mg/kg (Mus musculus [25]): 100%; Time (Mus musculus [26]): 1800 s; Time (Mus musculus [27]): 1207 s; Activity (Mus musculus [28]): 50%

From ChEMBL document CHEMBL3045472, “Synthesis and evaluation of some novel methylene-bridged aryl semicarbazones as potential anticonvulsant agents” (Med Chem Res, 2012)
